Active and inactive are the calls of the source. The calls are words filed in the database; no cut-off is given here.
Experiments:
[1] = molecular target: CYP2D6 (Homo sapiens, UniProt P10635); test: Inhibition of recombinant human CYP2D6 assessed as remaining activity at 10 uM preincubated for 5 mins followed by substrate and NADP addition measured after 20 mins by fluorescence assay relative to control; type: ADME; conditions: read-out: Activity
[2] = molecular target: T1, Metabotropic glutamate receptor 1 (Homo sapiens, UniProt Q13255); test: Antagonist activity at human mGluR1 expressed in human Chem-3 cells assessed as inhibition of L-glutamate-induced calcium release at 10 uM by calcium-5 reagent-based fluorescence assay relative to control; type: functional, cell-based
Target sequence in this assay (Q13255 19-1194 limits assumed): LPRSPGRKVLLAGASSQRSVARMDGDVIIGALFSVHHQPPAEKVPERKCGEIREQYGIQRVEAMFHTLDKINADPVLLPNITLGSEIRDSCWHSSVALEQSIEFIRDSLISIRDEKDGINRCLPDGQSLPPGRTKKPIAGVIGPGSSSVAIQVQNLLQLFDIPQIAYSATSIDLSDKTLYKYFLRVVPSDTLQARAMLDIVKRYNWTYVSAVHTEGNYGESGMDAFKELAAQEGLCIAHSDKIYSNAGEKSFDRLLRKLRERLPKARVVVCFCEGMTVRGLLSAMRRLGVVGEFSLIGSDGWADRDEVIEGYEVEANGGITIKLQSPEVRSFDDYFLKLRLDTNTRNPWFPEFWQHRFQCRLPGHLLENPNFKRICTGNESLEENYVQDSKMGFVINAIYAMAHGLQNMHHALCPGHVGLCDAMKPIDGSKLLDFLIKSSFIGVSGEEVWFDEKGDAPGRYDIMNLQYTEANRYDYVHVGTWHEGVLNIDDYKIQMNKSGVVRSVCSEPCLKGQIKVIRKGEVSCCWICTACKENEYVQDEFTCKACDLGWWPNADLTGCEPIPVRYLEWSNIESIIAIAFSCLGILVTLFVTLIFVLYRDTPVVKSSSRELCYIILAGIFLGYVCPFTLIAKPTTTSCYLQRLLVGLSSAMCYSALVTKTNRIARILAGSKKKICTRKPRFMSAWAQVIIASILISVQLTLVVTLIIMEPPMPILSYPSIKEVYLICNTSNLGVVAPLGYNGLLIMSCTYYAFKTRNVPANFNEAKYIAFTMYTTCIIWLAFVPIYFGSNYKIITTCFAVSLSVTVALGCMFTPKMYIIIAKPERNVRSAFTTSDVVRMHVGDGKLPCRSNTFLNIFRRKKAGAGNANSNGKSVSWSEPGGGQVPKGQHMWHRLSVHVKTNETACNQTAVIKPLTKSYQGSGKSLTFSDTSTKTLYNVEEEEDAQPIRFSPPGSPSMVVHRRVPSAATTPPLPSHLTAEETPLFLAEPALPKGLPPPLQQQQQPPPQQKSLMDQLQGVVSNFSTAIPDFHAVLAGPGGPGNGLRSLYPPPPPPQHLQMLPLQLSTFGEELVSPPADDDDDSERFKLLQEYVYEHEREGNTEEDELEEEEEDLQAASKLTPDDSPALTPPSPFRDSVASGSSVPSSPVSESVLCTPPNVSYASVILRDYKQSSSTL

[3] = molecular target: T1, Metabotropic glutamate receptor 1; test: Antagonist activity at human mGluR1 expressed in human Chem-3 cells assessed as inhibition of L-glutamate-induced calcium release by calcium-5 reagent-based fluorescence assay; type: functional, cell-based
Target sequence in this assay (Q13255 whole entry): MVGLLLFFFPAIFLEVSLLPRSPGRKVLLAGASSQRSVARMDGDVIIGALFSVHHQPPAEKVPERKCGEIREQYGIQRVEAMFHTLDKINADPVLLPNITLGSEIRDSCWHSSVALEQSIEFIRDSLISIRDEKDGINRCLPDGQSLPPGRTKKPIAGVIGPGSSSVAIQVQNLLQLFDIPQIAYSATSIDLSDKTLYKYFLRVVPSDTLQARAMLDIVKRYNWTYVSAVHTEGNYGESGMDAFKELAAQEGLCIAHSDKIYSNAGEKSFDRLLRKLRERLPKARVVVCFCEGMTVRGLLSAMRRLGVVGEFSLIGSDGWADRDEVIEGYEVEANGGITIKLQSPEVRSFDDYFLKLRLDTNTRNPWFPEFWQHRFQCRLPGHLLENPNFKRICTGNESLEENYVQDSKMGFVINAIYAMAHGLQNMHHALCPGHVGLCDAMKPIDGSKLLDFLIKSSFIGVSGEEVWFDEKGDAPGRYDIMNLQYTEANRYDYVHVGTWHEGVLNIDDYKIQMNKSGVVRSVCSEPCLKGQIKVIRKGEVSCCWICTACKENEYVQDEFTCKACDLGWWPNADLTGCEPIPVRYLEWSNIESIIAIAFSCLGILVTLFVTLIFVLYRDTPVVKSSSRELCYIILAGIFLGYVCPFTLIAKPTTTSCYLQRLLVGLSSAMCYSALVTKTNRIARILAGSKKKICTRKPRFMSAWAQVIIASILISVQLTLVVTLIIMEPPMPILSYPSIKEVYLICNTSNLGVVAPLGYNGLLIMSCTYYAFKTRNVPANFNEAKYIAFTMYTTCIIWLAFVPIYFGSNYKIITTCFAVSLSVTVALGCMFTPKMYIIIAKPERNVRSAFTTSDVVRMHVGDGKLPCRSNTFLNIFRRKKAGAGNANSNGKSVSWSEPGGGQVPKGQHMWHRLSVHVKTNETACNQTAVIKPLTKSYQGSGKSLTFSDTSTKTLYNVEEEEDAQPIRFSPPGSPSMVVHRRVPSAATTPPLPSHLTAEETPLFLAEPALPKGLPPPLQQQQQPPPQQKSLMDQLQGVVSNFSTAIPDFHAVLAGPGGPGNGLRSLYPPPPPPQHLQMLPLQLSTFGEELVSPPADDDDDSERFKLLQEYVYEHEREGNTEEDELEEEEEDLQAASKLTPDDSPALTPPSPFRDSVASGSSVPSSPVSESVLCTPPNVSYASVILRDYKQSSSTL

[4] = molecular target: T2, CYP1A2 (Homo sapiens, UniProt P05177); test: Inhibition of recombinant human CYP1A2 assessed as remaining activity at 10 uM preincubated for 5 mins followed by substrate and NADP addition measured after 20 mins by fluorescence assay relative to control; type: ADME; conditions: read-out: Activity
T2 sequence (P05177 whole entry): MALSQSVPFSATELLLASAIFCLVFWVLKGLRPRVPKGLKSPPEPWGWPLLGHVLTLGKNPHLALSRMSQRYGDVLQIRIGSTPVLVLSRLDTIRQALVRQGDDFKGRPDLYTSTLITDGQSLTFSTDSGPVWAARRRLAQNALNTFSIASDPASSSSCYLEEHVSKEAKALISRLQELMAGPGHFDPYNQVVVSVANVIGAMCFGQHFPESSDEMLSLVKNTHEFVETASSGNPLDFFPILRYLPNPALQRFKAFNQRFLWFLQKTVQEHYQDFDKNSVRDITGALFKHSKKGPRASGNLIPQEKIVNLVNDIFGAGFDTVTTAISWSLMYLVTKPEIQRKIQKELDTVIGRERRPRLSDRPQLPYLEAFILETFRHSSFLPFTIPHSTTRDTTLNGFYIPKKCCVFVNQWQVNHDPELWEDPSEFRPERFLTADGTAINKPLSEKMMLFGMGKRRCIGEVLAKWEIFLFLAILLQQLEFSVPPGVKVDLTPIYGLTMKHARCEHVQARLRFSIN

[5] = molecular target: CYP2C9 (Homo sapiens, UniProt P11712); test: Inhibition of recombinant human CYP2C9 assessed as remaining activity at 10 uM preincubated for 5 mins followed by substrate and NADP addition measured after 20 mins by fluorescence assay relative to control; type: ADME; conditions: read-out: Activity
[6] = molecular target: CYP3A4 (Homo sapiens, UniProt P08684); test: Inhibition of recombinant human CYP3A4 assessed as remaining activity at 10 uM preincubated for 5 mins followed by substrate and NADP addition measured after 20 mins by fluorescence assay relative to control; type: ADME; conditions: read-out: Activity
[7] = molecular target: CYP2C19 (Homo sapiens, UniProt P33261); test: Inhibition of recombinant human CYP2C19 assessed as remaining activity at 10 uM preincubated for 5 mins followed by substrate and NADP addition measured after 20 mins by fluorescence assay relative to control; type: ADME; conditions: read-out: Activity
[8] = Metabolic stability in human liver microsomes assessed as compound remaining at 1 uM after 30 mins by LC-MS/MS analysis in presence of NADPH; type: ADME; conditions: read-out: Stability
[9] = molecular target: T3, Metabotropic glutamate receptor 5 (Homo sapiens, UniProt P41594); test: Antagonist activity at human mGluR5 expressed in human embryonic kidney cells assessed as inhibition of L-glutamate-induced calcium release at 10 uM by calcium-5 reagent-based fluorescence assay relative to control; type: functional, cell-based
[10] = system: Rattus norvegicus; test: Analgesic activity in rat spinal nerve ligation model of neuropathic pain assessed as recovery from mechanical allodynia at 100 mg/kg, po administered on day 14 post ligation surgery measured after 3 hrs relative to control; type: functional
[11] = system: Rattus norvegicus; test: Analgesic activity in rat spinal nerve ligation model of neuropathic pain assessed as recovery from cold allodynia at 100 mg/kg, po administered on day 14 post ligation surgery measured after 1 hr relative to control; type: functional
[12] = molecular target: T3, Metabotropic glutamate receptor 5; test: Antagonist activity at human mGluR5 expressed in human embryonic kidney cells assessed as inhibition of L-glutamate-induced calcium release by calcium-5 reagent-based fluorescence assay; type: functional, cell-based
Target sequence in this assay (P41594 whole entry): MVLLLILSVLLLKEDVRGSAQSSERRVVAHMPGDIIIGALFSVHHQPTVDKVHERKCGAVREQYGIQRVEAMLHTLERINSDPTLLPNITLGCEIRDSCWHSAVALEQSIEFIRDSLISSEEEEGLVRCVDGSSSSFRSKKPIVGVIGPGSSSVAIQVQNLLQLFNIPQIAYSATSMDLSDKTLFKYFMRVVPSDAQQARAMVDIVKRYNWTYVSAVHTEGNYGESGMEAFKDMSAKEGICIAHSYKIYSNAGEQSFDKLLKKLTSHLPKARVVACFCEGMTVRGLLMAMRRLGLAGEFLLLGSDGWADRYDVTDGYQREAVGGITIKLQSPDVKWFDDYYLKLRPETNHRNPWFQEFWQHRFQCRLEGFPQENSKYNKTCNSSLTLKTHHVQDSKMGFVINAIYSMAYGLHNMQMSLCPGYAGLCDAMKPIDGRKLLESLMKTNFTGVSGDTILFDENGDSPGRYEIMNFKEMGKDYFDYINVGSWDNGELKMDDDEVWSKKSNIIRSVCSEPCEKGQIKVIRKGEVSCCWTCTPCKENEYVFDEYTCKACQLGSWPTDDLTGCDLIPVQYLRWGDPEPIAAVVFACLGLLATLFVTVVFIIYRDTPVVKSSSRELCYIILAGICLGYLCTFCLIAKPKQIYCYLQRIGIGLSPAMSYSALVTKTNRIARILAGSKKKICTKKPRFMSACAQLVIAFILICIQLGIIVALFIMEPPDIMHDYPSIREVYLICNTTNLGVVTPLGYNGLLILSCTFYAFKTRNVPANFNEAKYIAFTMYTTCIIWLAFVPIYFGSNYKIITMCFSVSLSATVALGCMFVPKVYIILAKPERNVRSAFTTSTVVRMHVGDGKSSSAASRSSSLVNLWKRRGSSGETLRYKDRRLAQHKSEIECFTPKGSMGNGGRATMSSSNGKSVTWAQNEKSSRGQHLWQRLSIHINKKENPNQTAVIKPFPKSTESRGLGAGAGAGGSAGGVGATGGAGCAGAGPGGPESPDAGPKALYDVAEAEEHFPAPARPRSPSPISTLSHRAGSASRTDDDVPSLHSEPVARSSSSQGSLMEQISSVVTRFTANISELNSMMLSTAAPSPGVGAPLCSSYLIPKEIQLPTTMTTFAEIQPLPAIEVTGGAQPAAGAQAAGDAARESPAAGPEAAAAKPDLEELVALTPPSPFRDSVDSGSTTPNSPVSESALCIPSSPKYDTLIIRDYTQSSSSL

CYP2C9, sequence (P11712 whole entry): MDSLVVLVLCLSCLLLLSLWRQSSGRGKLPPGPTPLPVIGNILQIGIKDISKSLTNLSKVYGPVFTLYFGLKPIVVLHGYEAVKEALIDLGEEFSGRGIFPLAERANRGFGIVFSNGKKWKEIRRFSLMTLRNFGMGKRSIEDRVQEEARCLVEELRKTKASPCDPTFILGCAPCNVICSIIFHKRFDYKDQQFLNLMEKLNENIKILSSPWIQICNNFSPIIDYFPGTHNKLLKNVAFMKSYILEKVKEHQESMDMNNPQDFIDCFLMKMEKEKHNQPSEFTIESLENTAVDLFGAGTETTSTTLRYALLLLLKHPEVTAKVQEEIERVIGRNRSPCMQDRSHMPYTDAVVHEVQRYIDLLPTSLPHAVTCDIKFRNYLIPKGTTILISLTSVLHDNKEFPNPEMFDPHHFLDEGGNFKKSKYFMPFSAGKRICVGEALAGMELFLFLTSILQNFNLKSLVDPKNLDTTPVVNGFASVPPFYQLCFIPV
CYP3A4, sequence (P08684 whole entry): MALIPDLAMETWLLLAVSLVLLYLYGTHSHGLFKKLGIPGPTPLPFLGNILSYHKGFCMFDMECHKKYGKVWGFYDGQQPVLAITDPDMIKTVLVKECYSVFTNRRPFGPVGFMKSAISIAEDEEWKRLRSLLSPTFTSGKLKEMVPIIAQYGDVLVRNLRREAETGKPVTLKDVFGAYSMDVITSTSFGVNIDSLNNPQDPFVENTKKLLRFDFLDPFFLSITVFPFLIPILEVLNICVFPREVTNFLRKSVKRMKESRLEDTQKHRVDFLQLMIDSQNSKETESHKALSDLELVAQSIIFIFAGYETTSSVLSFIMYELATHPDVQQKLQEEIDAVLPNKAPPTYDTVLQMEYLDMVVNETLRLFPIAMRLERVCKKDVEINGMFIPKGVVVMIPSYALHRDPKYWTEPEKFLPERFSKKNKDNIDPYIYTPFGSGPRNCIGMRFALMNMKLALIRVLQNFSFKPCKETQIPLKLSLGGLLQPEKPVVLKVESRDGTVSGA
CYP2C19, sequence (P33261 whole entry): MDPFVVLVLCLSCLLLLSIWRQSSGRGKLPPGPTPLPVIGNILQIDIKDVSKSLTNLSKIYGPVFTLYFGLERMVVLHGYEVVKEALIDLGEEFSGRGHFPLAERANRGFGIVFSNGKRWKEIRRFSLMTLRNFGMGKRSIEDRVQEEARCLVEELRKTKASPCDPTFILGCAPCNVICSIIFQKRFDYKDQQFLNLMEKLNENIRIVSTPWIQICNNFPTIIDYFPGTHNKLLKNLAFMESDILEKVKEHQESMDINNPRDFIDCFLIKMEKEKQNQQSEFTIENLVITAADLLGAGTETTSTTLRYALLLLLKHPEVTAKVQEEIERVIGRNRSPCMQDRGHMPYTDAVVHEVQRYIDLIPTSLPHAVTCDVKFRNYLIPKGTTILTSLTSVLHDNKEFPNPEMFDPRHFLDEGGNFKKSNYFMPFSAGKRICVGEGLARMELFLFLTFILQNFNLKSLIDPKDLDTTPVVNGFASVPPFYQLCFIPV

| Structure (SMILES) | inhibition [2] | IC50 [3] | inhibition [9] | also measured |
| --- | --- | --- | --- | --- |
| N#Cc1c(NCc2ccc(F)cc2)sc2c1CCN(C(=O)c1ccccc1)C2 | 77.8% | 1810 nM | 26.4% | activity at 20 min, 10 µM [1]: 36.4%; activity at 20 min, 10 µM [4]: 52%; activity at 20 min, 10 µM [5]: 5.48%; activity at 20 min, 10 µM [6]: 24.2%; activity at 20 min, 10 µM [7]: 3.81%; remaining at 0.5 h, 1 µM [8]: 33.4% |
| Cc1cc(C(=O)N2CCc3c(sc(NC(=O)c4ccc(F)cc4)c3C#N)C2)[nH]n1 | 31% |  | 13.7% |  |
| Cc1ccc(C(=O)N2CCc3c(sc(NCc4ccc(F)cc4)c3C#N)C2)cc1 | 46.6% |  | 37.6% |  |
| Cc1cc(C(=O)N2CCc3c(sc(NCc4ccc(Cl)cc4)c3C#N)C2)[nH]n1 | 40.9% |  | 31.2% |  |
| NCC1(CC(=O)O)CCCCC1 [GABAPENTIN] |  |  |  | Activity [10]: 80%; Activity [11]: 40% |
| N#Cc1c(NCc2ccccc2)sc2c1CCN(C(=O)c1cccc(F)c1)C2 | 79% | 2900 nM | 29.8% |  |
| N#Cc1ccc(CNc2sc3c(c2C#N)CCN(C(=O)c2ccccc2)C3)cc1 | 36.8% |  | 3.16% |  |
| COc1cccc(CNc2sc3c(c2C#N)CCN(C(=O)c2cccc(F)c2)C3)c1 | 15.5% |  | 33.2% |  |
| Cc1ccc(C(=O)N2CCc3c(sc(NCc4cccc(F)c4)c3C#N)C2)cc1 | 43.9% |  | 54.8% |  |
| Cc1cc(C(=O)N2CCc3c(sc(NC(=O)c4ccc(Cl)cc4)c3C#N)C2)[nH]n1 | 42.2% |  | -2.15% |  |
| CC(C)c1cc(C(=O)N2CCc3c(sc(NC(=O)c4ccc(F)cc4)c3C#N)C2)[nH]n1 | 28.5% |  | -2.3% |  |
| COc1ccc(C(=O)Nc2sc3c(c2C#N)CCN(C(=O)c2cc(C(C)C)n[nH]2)C3)cc1 | -6.42% |  | 63.1% | IC50 [12]: 4830 nM |
| N#Cc1c(NCc2ccccc2)sc2c1CCN(C(=O)c1cnccc1F)C2 | 90.1% | 1240 nM | 16% |  |
| CC(C)c1cc(C(=O)N2CCc3c(sc(NCc4ccccc4)c3C#N)C2)[nH]n1 | 54.4% | 43200 nM | 8.89% |  |
| Cc1ccc(C(=O)N2CCc3c(sc(NCc4ccccc4)c3C#N)C2)cc1 | 69.7% | 4720 nM | 24.3% |  |
| N#Cc1c(NCc2ccc(F)cc2)sc2c1CCN(C(=O)c1ccc(F)cc1)C2 | 73.1% |  | 22.3% |  |
| N#Cc1c(NCc2ccc(F)cc2)sc2c1CCN(C(=O)c1ccn[nH]1)C2 | 91.4% | 2030 nM | 13.5% |  |
| COc1ccc(C(=O)N2CCc3c(sc(NCc4ccc(F)cc4)c3C#N)C2)cc1 | 47.7% |  | 68% | IC50 [12]: 1430 nM |

| Structure (SMILES) | inhibition [2] | IC50 [3] | inhibition [9] | also measured |
| --- | --- | --- | --- | --- |
| COc1ccc(C(=O)Nc2sc3c(c2C#N)CCN(C(=O)c2cc(C)n[nH]2)C3)cc1 | -9.58% |  | 28.3% |  |
| N#Cc1c(NCc2cccc(F)c2)sc2c1CCN(C(=O)c1ccc(F)cc1)C2 | 82% | 2380 nM | 36.5% |  |
| COc1ccc(C(=O)N2CCc3c(sc(NCc4ccc(C#N)cc4)c3C#N)C2)cc1 | 10.9% |  | 41.5% |  |
| CC(C)c1cc(C(=O)N2CCc3c(sc(NCc4ccc(F)cc4)c3C#N)C2)[nH]n1 | 40.7% |  | 43.1% |  |
| CC(C)c1cc(C(=O)N2CCc3c(sc(NC(=O)c4ccc(Cl)cc4)c3C#N)C2)[nH]n1 | 62.5% | 12200 nM | -4.28% |  |
| Cc1cc(C(=O)N2CCc3c(sc(NC(=O)c4ccccc4)c3C#N)C2)[nH]n1 | 8.51% |  | 27.8% |  |
| CC(C)c1cc(C(=O)N2CCc3c(sc(NC(=O)c4ccccc4)c3C#N)C2)[nH]n1 | 14.6% |  | 39.3% |  |
| N#Cc1c(NCc2cccc(F)c2)sc2c1CCN(C(=O)c1ccc(Cl)cc1)C2 | 41.2% |  | 60% |  |
| N#Cc1c(NCc2ccccc2)sc2c1CCN(C(=O)c1ccc(F)cc1)C2 | 91.5% | 600 nM | 26.1% | activity at 20 min, 10 µM [1]: 42%; activity at 20 min, 10 µM [4]: 58.1%; activity at 20 min, 10 µM [5]: 5.48%; activity at 20 min, 10 µM [6]: 20%; activity at 20 min, 10 µM [7]: 9.94%; Activity [10]: inactive; remaining at 0.5 h, 1 µM [8]: 49.4%; Activity [11]: Active |
| Cc1cccc(C(=O)N2CCc3c(sc(NCc4ccccc4)c3C#N)C2)c1 | 73.5% | 3140 nM | 8.8% | activity at 20 min, 10 µM [1]: 35.7%; activity at 20 min, 10 µM [4]: 42.6%; activity at 20 min, 10 µM [5]: 4.33%; activity at 20 min, 10 µM [6]: 9.36%; activity at 20 min, 10 µM [7]: 4.57%; remaining at 0.5 h, 1 µM [8]: 16.4% |
| COc1ccc(C(=O)N2CCc3c(sc(NCc4cccc(F)c4)c3C#N)C2)cc1 | 42.8% |  | 69% | IC50 [12]: 4730 nM |
| CC(C)c1cc(C(=O)N2CCc3c(sc(NCc4ccc(Cl)cc4)c3C#N)C2)[nH]n1 | 46.3% |  | 24.8% |  |
| N#Cc1c(NCc2ccccc2)sc2c1CCN(C(=O)c1ccccc1)C2 | 66.4% | 2820 nM | 46% |  |
| COc1cccc(CNc2sc3c(c2C#N)CCN(C(=O)c2ccc(F)cc2)C3)c1 | 67.5% | 3090 nM | 31.1% | activity at 20 min, 10 µM [1]: 35%; activity at 20 min, 10 µM [4]: 78.5%; activity at 20 min, 10 µM [5]: 6.46%; activity at 20 min, 10 µM [6]: 12.5%; activity at 20 min, 10 µM [7]: 7.99%; remaining at 0.5 h, 1 µM [8]: 12.1% |
| N#Cc1c(NCc2ccc(Cl)cc2)sc2c1CCN(C(=O)c1ccc(F)cc1)C2 | 35.2% |  | 25.3% |  |
| N#Cc1c(NCc2cccc(F)c2)sc2c1CCN(C(=O)c1ccccc1)C2 | 63.9% | 5310 nM | 44.2% |  |
| N#Cc1c(NCc2ccccc2)sc2c1CCN(C(=O)c1ccn[nH]1)C2 | 94.9% | 1090 nM | 4.48% |  |
| Cc1cc(C(=O)N2CCc3c(sc(NCc4ccc(F)cc4)c3C#N)C2)[nH]n1 | 84.2% | 2450 nM | 37.6% |  |
